Measurements published in US10548317B2, “Pesticidally active pyrazole derivatives” (SYNGENTA PARTICIPATIONS AG, priority 2015, dated 2020).

What was measured:
Type in all cases: in vivo
Spodoptera littoralis = Spodoptera littoralis (Egyptian cotton leaf worm) leaf disc spray test; conditions: foliar, 72 h, application rate of 200 ppm, cotton leaf discs, L1 larvae, 3 days after infestation, read-out: control (at least one of mortality, anti-feedant effect, growth inhibition)
Method: Spodoptera littoralis (Egyptian Cotton Leaf Worm)
Cotton leaf discs were placed on agar in 24-well microtiter plates and sprayed with aqueous test solutions prepared from 10'000 ppm DMSO stock solutions. After drying the leaf discs were infested with five L1 larvae. The samples were assessed for mortality, anti-feedant effect, and growth inhibition in comparison to untreated samples 3 days after infestation. Control of Spodoptera littoralis by a test sample is when at least one of mortality, anti-feedant effect, and growth inhibition is higher than the untreated sample.

Plutella xylostella = Plutella xylostella (diamond back moth) artificial diet test; conditions: 120 h, application rate of 200 ppm, L2 larvae, 5 days after infestation, read-out: effect in at least one of the two categories (mortality or growth inhibition)
Method: Plutella xylostella (Diamond Back Moth):
24-well microtiter plates with artificial diet were treated with aqueous test solutions prepared from 10'000 ppm DMSO stock solutions by pipetting. After drying, the plates were infested with L2 larvae (10 to 15 per well). The samples were assessed for mortality and growth inhibition in comparison to untreated samples 5 days after infestation. The following compounds gave an effect of at least 80% in at least one of the two categories (mortality or growth inhibition) at an application rate of 200 ppm: 1, 2, 3, 4, 5, 6, 7, 8, 9, 10, 11, 12, 13, 14, 15, 16, 17, 18, 19, 20, 21, 22, 23, 24, 25, 26, 27, 28, 29, 30, 31, 32, 33, 35, 36, 37, 38, 39, 40, 41, 42, 43, 44, 45, 46, 47, 48, 50, 51, 52, 53, 54 and 55.

Diabrotica balteata = Diabrotica balteata (corn root worm) maize sprout test; conditions: 96 h, application rate of 200 ppm, maize sprouts, L2 larvae, 4 days after infestation, read-out: effect in at least one of the two categories (mortality or growth inhibition)
Method: Diabrotica balteata, (Corn Root Worm)
Maize sprouts, placed on an agar layer in 24-well microtiter plates were treated with aqueous test solutions prepared from 10'000 ppm DMSO stock solutions by spraying. After drying, the plates were infested with L2 larvae (6 to 10 per well). The samples were assessed for mortality and growth inhibition in comparison to untreated samples 4 days after infestation. The following compounds gave an effect of at least 80% in at least one of the two categories (mortality or growth inhibition) at an application rate of 200 ppm: 1, 3, 4, 5, 6, 7, 8, 9, 10, 11, 12, 14, 15, 16, 17, 18, 19, 20, 21, 22, 23, 24, 25, 26, 27, 28, 29, 30, 31, 32, 33, 35, 36, 37, 38, 39, 40, 41, 42, 43, 44, 45, 48, 50, 51, 52, 53, 54 and 55.

Thrips tabaci = Thrips tabaci (onion thrips) sunflower leaf disc test; conditions: foliar, 144 h, application rate of 200 ppm, sunflower leaf discs, mixed ages, 6 days after infestation
Method: Thrips tabaci (Onion thrips):
(§1) Sunflower leaf discs were placed on agar in 24-well microtiter plates and sprayed with aqueous test solutions prepared from 10'000 ppm DMSO stock solutions. After drying the leaf discs were infested with a thrips population of mixed ages. The samples were assessed for mortality 6 days after infestation.

Euschistus heros = Euschistus heros (neotropical brown stink bug) soybean leaf test; conditions: 120 h, application rate of 200 ppm, soybean leaves, N2 nymphs, 5 days after infestation, read-out: effect in at least one of the two categories (mortality or growth inhibition)
Method: Euschistus heros (Neotropical Brown Stink Bug)
Soybean leaves on agar in 24-well microtiter plates were sprayed with aqueous test solutions prepared from 10'000 ppm DMSO stock solutions. After drying the leaves were infested with N2 nymphs. The samples were assessed for mortality and growth inhibition in comparison to untreated samples 5 days after infestation. The following compounds gave an effect of at least 80% in at least one of the two categories (mortality or growth inhibition) at an application rate of 200 ppm: 3, 4, 5, 6, 9, 10, 12, 14, 15, 16, 17, 18, 20, 24, 27, 28, 29, 31, 32, 33, 36, 37, 38, 42, 43, 45, 50, 52, 53, 54 and 55.

Tetranychus urticae = Tetranychus urticae (two-spotted spider mite) bean leaf disc test; conditions: foliar, 192 h, application rate of 200 ppm, bean leaf discs, mixed population (mobile stages), 8 days after infestation
Method: Tetranychus urticae (Two-Spotted Spider Mite):
as §1, with “Bean” for “Sunflower”, “discs” for “discs were placed”, “were” for “and”, “mite” for “thrips”, “on mixed population (mobile stages) 8” for “6”

C=C(F)CNC(=O)c1cc(-c2cnn(-c3c(C(F)(F)F)c(C(F)(F)C(F)(F)F)nn3C)c2)sc1Cl [Compound 24]
≥ 80%: control (mortality, anti-feedant effect or growth inhibition) at 200 ppm (Spodoptera littoralis) | percent effect (mortality or growth inhibition) at 200 ppm (Plutella xylostella) | percent effect (mortality or growth inhibition) at 200 ppm (Diabrotica balteata) | mortality at 200 ppm (Thrips tabaci) | percent effect (mortality or growth inhibition) at 200 ppm (Euschistus heros)

Cc1sc(-c2cnn(-c3c(C(F)(F)F)c(C(F)(F)C(F)(F)F)nn3C)c2)cc1C(=O)NC1CC1 [Compound 43]
≥ 80%: control (mortality, anti-feedant effect or growth inhibition) at 200 ppm (Spodoptera littoralis) | percent effect (mortality or growth inhibition) at 200 ppm (Plutella xylostella) | percent effect (mortality or growth inhibition) at 200 ppm (Diabrotica balteata) | mortality at 200 ppm (Thrips tabaci) | mortality at 200 ppm (Tetranychus urticae) | percent effect (mortality or growth inhibition) at 200 ppm (Euschistus heros)

CC(C)NC(=O)c1cc(-c2cnn(-c3c(C(F)(F)F)c(C(F)(F)C(F)(F)F)nn3C)c2)sc1Cl [Compound 17]
≥ 80%: control (mortality, anti-feedant effect or growth inhibition) at 200 ppm (Spodoptera littoralis) | percent effect (mortality or growth inhibition) at 200 ppm (Plutella xylostella) | percent effect (mortality or growth inhibition) at 200 ppm (Diabrotica balteata) | mortality at 200 ppm (Thrips tabaci) | mortality at 200 ppm (Tetranychus urticae) | percent effect (mortality or growth inhibition) at 200 ppm (Euschistus heros)

CN(C(=O)c1cc(-c2cnn(-c3c(C(F)(F)F)c(C(F)(F)C(F)(F)F)nn3C)c2)sc1Cl)C1(C#N)CC1 [Compound 9]
≥ 80%: control (mortality, anti-feedant effect or growth inhibition) at 200 ppm (Spodoptera littoralis) | percent effect (mortality or growth inhibition) at 200 ppm (Plutella xylostella) | percent effect (mortality or growth inhibition) at 200 ppm (Diabrotica balteata) | mortality at 200 ppm (Thrips tabaci) | mortality at 200 ppm (Tetranychus urticae) | percent effect (mortality or growth inhibition) at 200 ppm (Euschistus heros)

Cn1nc(C(F)(F)C(F)(F)F)c(C(F)(F)F)c1-n1cc(-c2cc(C(=O)N[C@H]3C[C@@H]3C(F)(F)F)c(Cl)s2)cn1 [Compound 33]
≥ 80%: control (mortality, anti-feedant effect or growth inhibition) at 200 ppm (Spodoptera littoralis) | percent effect (mortality or growth inhibition) at 200 ppm (Plutella xylostella) | percent effect (mortality or growth inhibition) at 200 ppm (Diabrotica balteata) | mortality at 200 ppm (Thrips tabaci) | mortality at 200 ppm (Tetranychus urticae) | percent effect (mortality or growth inhibition) at 200 ppm (Euschistus heros)

Cc1sc(-c2cnn(-c3c(C(F)(F)F)c(C(F)(F)C(F)(F)F)nn3C)c2)cc1C(=O)NC1(C#N)CC1 [Compound 42]
≥ 80%: control (mortality, anti-feedant effect or growth inhibition) at 200 ppm (Spodoptera littoralis) | percent effect (mortality or growth inhibition) at 200 ppm (Plutella xylostella) | percent effect (mortality or growth inhibition) at 200 ppm (Diabrotica balteata) | mortality at 200 ppm (Thrips tabaci) | mortality at 200 ppm (Tetranychus urticae) | percent effect (mortality or growth inhibition) at 200 ppm (Euschistus heros)

Cn1nc(C(F)(F)C(F)(F)F)c(C(F)(F)F)c1-n1cc(-n2cc(C(=O)NC3CC3)c(C(F)(F)F)n2)cn1 [Compound 12]
≥ 80%: control (mortality, anti-feedant effect or growth inhibition) at 200 ppm (Spodoptera littoralis) | percent effect (mortality or growth inhibition) at 200 ppm (Plutella xylostella) | percent effect (mortality or growth inhibition) at 200 ppm (Diabrotica balteata) | mortality at 200 ppm (Thrips tabaci) | mortality at 200 ppm (Tetranychus urticae) | percent effect (mortality or growth inhibition) at 200 ppm (Euschistus heros)

Cn1nc(C(F)(F)C(F)(F)F)c(C(F)(F)F)c1-n1cc(-c2cc(C(=O)NC3CC3F)c(Cl)s2)cn1 (stereo not shown) [Compound 32]
≥ 80%: control (mortality, anti-feedant effect or growth inhibition) at 200 ppm (Spodoptera littoralis) | percent effect (mortality or growth inhibition) at 200 ppm (Plutella xylostella) | percent effect (mortality or growth inhibition) at 200 ppm (Diabrotica balteata) | mortality at 200 ppm (Thrips tabaci) | percent effect (mortality or growth inhibition) at 200 ppm (Euschistus heros)

Cn1nc(C(F)(F)C(F)(F)F)c(C(F)(F)F)c1-n1cc(-c2cc(C(=O)NC3(C(N)=S)CC3)c(Cl)s2)cn1 [Compound 6, N-(1-carbamothioylcyclopropyl)-2-chloro-5-[1-[2-methyl-5-(1,1,2,2,2-pentafluoroethyl)-4-(trifluoromethyl)pyrazol-3-yl]pyrazol-4-yl]thiophene-3-carboxamide]
≥ 80%: control (mortality, anti-feedant effect or growth inhibition) at 200 ppm (Spodoptera littoralis) | percent effect (mortality or growth inhibition) at 200 ppm (Plutella xylostella) | percent effect (mortality or growth inhibition) at 200 ppm (Diabrotica balteata) | mortality at 200 ppm (Thrips tabaci) | mortality at 200 ppm (Tetranychus urticae) | percent effect (mortality or growth inhibition) at 200 ppm (Euschistus heros)

Cn1nc(OC(F)(F)C(F)C(F)(F)F)c(C(F)(F)F)c1-n1cc(-c2cc(C(=O)NC3(C#N)CC3)c(Cl)s2)cn1 (stereo not shown) [Compound 52]
≥ 80%: control (mortality, anti-feedant effect or growth inhibition) at 200 ppm (Spodoptera littoralis) | percent effect (mortality or growth inhibition) at 200 ppm (Plutella xylostella) | percent effect (mortality or growth inhibition) at 200 ppm (Diabrotica balteata) | percent effect (mortality or growth inhibition) at 200 ppm (Euschistus heros)

Cn1nc(C(F)(F)C(F)(F)F)c(C(F)(F)F)c1-n1cc(-c2cc(C(=O)NCC=C(Cl)Cl)c(Cl)s2)cn1 [Compound 28]
≥ 80%: control (mortality, anti-feedant effect or growth inhibition) at 200 ppm (Spodoptera littoralis) | percent effect (mortality or growth inhibition) at 200 ppm (Plutella xylostella) | percent effect (mortality or growth inhibition) at 200 ppm (Diabrotica balteata) | mortality at 200 ppm (Tetranychus urticae) | percent effect (mortality or growth inhibition) at 200 ppm (Euschistus heros)

Cn1nc(C(F)(F)C(F)(F)F)c(C(F)(F)F)c1-n1cc(-n2cc(C(=O)NC3CC3)c(C(F)(F)F)c2)cn1 [Compound 45]
≥ 80%: control (mortality, anti-feedant effect or growth inhibition) at 200 ppm (Spodoptera littoralis) | percent effect (mortality or growth inhibition) at 200 ppm (Plutella xylostella) | percent effect (mortality or growth inhibition) at 200 ppm (Diabrotica balteata) | mortality at 200 ppm (Thrips tabaci) | percent effect (mortality or growth inhibition) at 200 ppm (Euschistus heros)

Cn1nc(OC(F)(F)C(F)C(F)(F)F)c(C(F)(F)F)c1-n1cc(-c2cc(C(=O)NC3CC3)c(Cl)s2)cn1 (stereo not shown) [Compound 53]
≥ 80%: control (mortality, anti-feedant effect or growth inhibition) at 200 ppm (Spodoptera littoralis) | percent effect (mortality or growth inhibition) at 200 ppm (Plutella xylostella) | percent effect (mortality or growth inhibition) at 200 ppm (Diabrotica balteata) | percent effect (mortality or growth inhibition) at 200 ppm (Euschistus heros)

Cn1nc(C(F)(F)C(F)(F)F)c(C(F)(F)F)c1-n1cc(-c2cc(C(=O)NC3(c4ccccn4)CC3)c(Cl)s2)cn1 [Compound 15]
≥ 80%: control (mortality, anti-feedant effect or growth inhibition) at 200 ppm (Spodoptera littoralis) | percent effect (mortality or growth inhibition) at 200 ppm (Plutella xylostella) | percent effect (mortality or growth inhibition) at 200 ppm (Diabrotica balteata) | mortality at 200 ppm (Tetranychus urticae) | percent effect (mortality or growth inhibition) at 200 ppm (Euschistus heros)

Cn1nc(C(F)(F)C(F)(F)F)c(C(F)(F)F)c1-n1cc(-c2cc(C(=O)NCC(F)(F)F)c(Cl)s2)cn1 [Compound 14]
≥ 80%: control (mortality, anti-feedant effect or growth inhibition) at 200 ppm (Spodoptera littoralis) | percent effect (mortality or growth inhibition) at 200 ppm (Plutella xylostella) | percent effect (mortality or growth inhibition) at 200 ppm (Diabrotica balteata) | mortality at 200 ppm (Thrips tabaci) | percent effect (mortality or growth inhibition) at 200 ppm (Euschistus heros)

Cn1nc(C(F)(F)C(F)(F)F)c(C(F)(F)F)c1-n1cc(-c2cc(C(N)=O)c(Cl)s2)cn1 [Compound 16]
≥ 80%: control (mortality, anti-feedant effect or growth inhibition) at 200 ppm (Spodoptera littoralis) | percent effect (mortality or growth inhibition) at 200 ppm (Plutella xylostella) | percent effect (mortality or growth inhibition) at 200 ppm (Diabrotica balteata) | mortality at 200 ppm (Thrips tabaci) | percent effect (mortality or growth inhibition) at 200 ppm (Euschistus heros)

Cn1nc(OC(F)(F)C(F)OC(F)(F)F)c(C(F)(F)F)c1-n1cc(-c2cc(C(=O)NC3(C#N)CC3)c(Cl)s2)cn1 (stereo not shown) [Compound 54]
≥ 80%: control (mortality, anti-feedant effect or growth inhibition) at 200 ppm (Spodoptera littoralis) | percent effect (mortality or growth inhibition) at 200 ppm (Plutella xylostella) | percent effect (mortality or growth inhibition) at 200 ppm (Diabrotica balteata) | percent effect (mortality or growth inhibition) at 200 ppm (Euschistus heros)

CNC(=O)c1cc(-c2cnn(-c3c(C(F)(F)F)c(C(F)(F)C(F)(F)F)nn3C)c2)sc1Cl [Compound 18]
≥ 80%: control (mortality, anti-feedant effect or growth inhibition) at 200 ppm (Spodoptera littoralis) | percent effect (mortality or growth inhibition) at 200 ppm (Plutella xylostella) | percent effect (mortality or growth inhibition) at 200 ppm (Diabrotica balteata) | mortality at 200 ppm (Thrips tabaci) | percent effect (mortality or growth inhibition) at 200 ppm (Euschistus heros)
